This experiment deals with T1, α1d (rat) adrenoreceptor (Rattus norvegicus, UniProt P23944).
T1 sequence (P23944 1-561): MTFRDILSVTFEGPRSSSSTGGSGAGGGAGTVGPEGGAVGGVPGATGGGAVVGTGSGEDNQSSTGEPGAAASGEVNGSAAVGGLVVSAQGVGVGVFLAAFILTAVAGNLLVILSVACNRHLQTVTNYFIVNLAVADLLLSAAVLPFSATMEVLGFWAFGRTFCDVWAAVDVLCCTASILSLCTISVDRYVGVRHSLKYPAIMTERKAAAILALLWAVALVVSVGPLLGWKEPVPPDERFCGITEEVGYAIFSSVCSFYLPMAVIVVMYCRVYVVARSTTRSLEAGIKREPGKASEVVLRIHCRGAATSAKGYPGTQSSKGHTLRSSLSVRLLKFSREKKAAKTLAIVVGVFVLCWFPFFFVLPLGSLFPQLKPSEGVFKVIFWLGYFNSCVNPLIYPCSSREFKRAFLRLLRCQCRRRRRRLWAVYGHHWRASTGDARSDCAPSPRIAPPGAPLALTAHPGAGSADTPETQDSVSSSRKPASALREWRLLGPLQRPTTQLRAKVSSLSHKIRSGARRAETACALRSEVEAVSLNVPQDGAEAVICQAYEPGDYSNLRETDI
Briefly: [3H]-prazosin radioligand binding, cloned α1d (rat) adrenoreceptor in LTK cells. The settings on record: cloned receptor in LTK cell membranes, [3H]prazosin 0.2 nM. Here is the method: Representative compounds of the invention were evaluated for α adrenoreceptor binding affinity in vitro using [^3H]-prazosin as the radioligand and following four cloned α1, adrenoreceptors expressed in LTK cells: α1a (rat), α1a (bovine), α1b : (hampster), and α1d (rat).
The cDNA clones encoding the α1, adrenoreceptors were obtained from TULCO (Triangle Universities Licensing Consortium, Research Triangle Park, N.C.) and inserted into the eukaryotic expression vector SnaB30. In this vector, expression of the adrenoreceptor gene is under the transcriptional control of an SV40 early promoter. Positive drug selection is provided by a neomycin-resistance gene. Mouse fibroblast cells (LTK) were transfected with the α1 expression plasmids and grown in Dulbecco's modified Eagle's medium (DMEM) containing 10% fetal calf serum and 30 μM G418. Stable G418-resistant parental lines were generated with successful expression of adrenoreceptor protein monitored using radioligand binding techniques. Stable single cell clones derived from the parental lines were screened in adrenoreceptor binding assays to identify clones having high adrenoreceptor density. Roller bottle cultures of the cloned lines were used to provide cell membranes for subsequent adrenoreceptor binding characterization studies. A cell line containing the SnaB30 vector expressing the human erythropoietin gene served as a negative control.
For adrenoreceptor binding assays, large scale membrane preparations were utilized in which 6 million cells were seeded into small (450 cm^2) Coming tissue culture roller bottles. DMEM (200 mL) containing 10% fetal calf serum and 300 μM G418 were added to each roller bottle. A 95% air/5% CO2 gas mixture (sterile) was injected into each roller bottle prior to sealing, and the bottles were then incubated at 37° C. on a roller rack for 5 days. Cells were refed with fresh medium after 3 days in culture.
On the fifth day of culture, growth medium was removed from cells grown in roller bottles, and the cells were washed twice with PBS (Sigma, 120 mM NaCl, 2.7 mM KCl, 10 mM Na2HPO4-NaH2PO4, pH=7.4). Cells were detached from the roller bottles by incubating for 15 minutes at 37° C. in a Tris-EDTA solution (10 mM Tris, 100 mM NaCl, 1 mM EDTA, pH=7.4). The cell suspension from each roller bottle was decanted into tared centrifuge tubes and kept on ice. An aliquot of each cell suspension was generally taken for cell counting. Cells were centrifuged at 3000×G for 5 minutes at 2-4° C., washed with PBS and recentrifuged. The supernatant was decanted, and the pellet was weighed to determine the wet weight of cells. Cells were washed a final time in 40 vol 5 mM Tris-HCl, 5 mM EDTA, pH=7.7 and centrifuged at 40,000×G for 10 minutes (“vol” indicates volume/weight, e.g., a “vol” of 40 would indicate that the one gram of cells were washed with 40 mls of buffer). Cells were homogenized in of 50 mM Tris-HCl, 5 mM EDTA (pH=7.4) (10 mL) and diluted to 40 mL/tube. Homogenates were centrifuged at 40,000×G for 10 minutes. The supernatant was decanted and the pellets rehomogenized in 50 mM Tris-HCl (pH=7.4) and centrifuged as before. The supernatant was decanted and the homogenate was resuspended in 6.25 volumes (per gram wet weight) of 50 mM Tris-HCl and aliquots of the pooled homogenates frozen in liquid N2 and,stored at −70° C. until the time of assay.
Receptor binding assays for α1 adrenoreceptors were performed essentially as described by Greengrass and Bremner (Eur. J. Pharmacol. 55: 323-326 (1979)). […] Following equilibration, bound radioligand was separated from free on GF/B filters (presoaked in 0.5% polyethyleneimine) using ither a Brandel or Packard cell harvester. Radioactivity was determined by standard liquid scintillation techniques. Data were analyzed as previously described (Hancock, A. A., Kyncl, J. J., Martin, Y. C. and DeBemardis, J. F., J. Receptor Res. 8: 23-46 (1988)). The in Table 1.

Where a name gives a salt, the structure may show the parent alone.

For eight molecules, Ki results are on record in patent US6376488B1, “Benzoxazine α-1 adrenergic compounds” (Abbott Laboratories, priority 2000, dated 2002).

A word on the Ki: it is the equilibrium dissociation constant of an inhibitor or competing ligand from its target. Low readings indicate tighter binding, high ones weaker binding. `Cl.Cl.O=c1[nH]c2c(sc3ncccc32)c(=O)n1CCCCN1CCN2c3ccccc3OCC2C1` (single isomer, unassigned; (+)) [Example 5, (+) 3-[4-(1,2,4a,5-tetrahydropyrazino[2,1-c][1,4]benzoxazin-3(4H)-yl)butyl]pyrido[3′, 2′:4,5]thieno[3,2-d]pyrimidine-2,4(1H,3H)-dione dihydrochloride]: affinity was put at a Ki of 4.26 nM. This counts as single-digit nanomolar.

`Cl.Cl.O=c1[nH]c2c(sc3cccnc32)c(=O)n1CCCN1CCN2c3ccccc3OCC2C1` (single isomer, unassigned; (+)) [Example 1, (+) 3-[3-(1,2,4a,5-tetrahydropyrazino[2,1-c][1,4]benzoxazin-3(4H)-yl)propyl]pyrido[2′,3′:4,5]thieno[3,2-d]pyrimidine-2,4(1H,3H)-dione dihydrochloride] returned a Ki of 5.89 nM. The Ki values of the last two molecules are within 1.5-fold of each other.

In the case of `O=c1[nH]c2c(sc3cccnc32)c(=O)n1CCCCN1CCN2c3ccccc3OCC2C1` (single isomer, unassigned; (-)) [Example 4, (−) 3-[4-(1.2,4a,5-tetrahydropyrazino[2,1-c][1,4benzoxazin-3(4H)-yl)butyl]pyrido[2′,3′:4,5]thieno[3,2-d]pyrimidine-2,4(1H,3H)-dione dihydrochloride], the Ki came to 19.5 nM.

Molecule `Cl.Cl.O=c1[nH]c2c(sc3cccnc32)c(=O)n1CCCCN1CCN2c3ccccc3OCC2C1` (single isomer, unassigned; (+)) [Example 3, (+) 3-[4-(1,2,4a,5-tetrahydropyrazino[2,1-c][1,4]benzoxazin-3(4H)-yl)butyl]pyrido[2′, 3′:4,5]thieno[3,2-d]pyrimidine-2,4(1H,3H)-dione dihydrochloride] had a Ki of 5 nM. Against the preceding molecule, the Ki is about 3.9-fold lower.

As to `COc1cccc2c1N1CCN(CCCCn3c(=O)[nH]c4c(sc5ncc(Cl)nc54)c3=O)CC1CO2.Cl.Cl` (single isomer, unassigned; (-)) [Example 12, (−) 3-[4-(10-methoxy-1,2,4a,5-tetrahydropyrazino[2,1-c][1,4]benzoxazin-3(4H)-yl)butyl]-8-chloropyrazino[2′,3′:4,5]thieno[3,2-d]pyrimidine-2,4(1H,3H)-dione dihydrochloride], the Ki was determined as 1.15 nM.

For `COc1cccc2c1N1CCN(CCn3c(=O)[nH]c4c(sc5ncc(Cl)nc54)c3=O)CC1CO2.Cl.Cl` (single isomer, unassigned; (-)) [Example 13, (−) 3-[2-(10-methoxy-1,2,4a,5-tetrahydropyrazino[2,1-c][1,4]benzoxazin-3(4H)-yl)ethyl]-8-chloropyrazino[2′,3′:4,5]thieno[3,2-d]pyrimidine-2,4(1H,3H)-dione dihydrochloride], the Ki was 3.52 nM.

Molecule `COc1cccc2c1N1CCN(CCn3c(=O)[nH]c4c(sc5cccnc54)c3=O)CC1CO2.Cl.Cl.Cl` (single isomer, unassigned; (+)) [Example 16, (+) 3-[2-(10-methoxy-1,2,4a,5-tetrahydropyrazino[2,1-c][1,4]benzoxazin-3(4H)-yl)ethyl]pyrido[2′,3′:4,5]thieno[3,2-d]pyrimidine-2,4(1H,3H)-dione trihydrochloride] gave a Ki of 2.01 nM.

Take `O=c1[nH]c2c(sc3cccnc32)c(=O)n1CCCN1CCN2c3ccccc3OCC2C1` (single isomer, unassigned; (-)) [Example 2, (−) 3-[3-(1,2,4a,5-tetrahydropyrazino[2,1-c][1,4]benzoxazin-3(4H)-yl)propyl]pyrido[2′,3′:4,5]thieno[3,2-d]pyrimidine-2,4(1H,3H)-dione dihydrochloride]: affinity was put at a Ki of 69.8 nM.
